From patent US8318422B2, “Antibacterial treatment of osteoarthritis” (Orthogenics AS, priority 2001, dated 2012)

Tests used:
[1] = tested on: patients with Osteoarthritis; test: Clinical study: antibiotic treatment of patients with osteoarthritis, KOOS (Knee Injury and Osteoarthritis Outcome Score); assay type: in vivo, human; details: 100 mg daily for 4 weeks
Excerpt: Thirty patients were diagnosed and treated for one month with the antibiotic known generically internationally as Doxycycline, this was purchased as Vibramycin from Pfizer. Samples from synovial fluid were taken before and after treatment. We identified 30 patients that had clinical and radiological signs of Osteoarthritis. These patients were informed and signed a paper according to the instructions from the ethical committee (Northern Norway Health Region 5). We used the KOOS (Knee Injury and Osteoarthritis Outcome Score) [Roos et al: Development of a self-administered outcome measure. Journal of Orthopaedic and Sports Physical Therapy 78(2): 88-96, 1998] and the Lysholm score [Ref. […] and Lysholm: Rating systems in the Evaluation of Knee Ligament Injuries. Clinical Orthopaedics an Related Research Number 198 September 1985: 43-49.] During the first visit we took a sample from the synovial fluid. Standard technique, upper lateral portal, using a 10 ml. syringe. […] The samples were immediately put into an icebox and brought to the lab. All the patients were given Vibramycin 100 mg daily for 4 weeks. From the patients where we found the bacteria, we took new synovial-fluid samples using the same technique. […] KOOS: These parameters were analysed. • Symptoms • Activity of daily living • Sport • Quality of daily living • Pain

[2] = tested on: patients with Osteoarthritis; test: Clinical study: response to antibiotic treatment as determined by direct questions to the patients; assay type: in vivo, human; details: following 4 weeks of treatment
Excerpt: Thirty patients were diagnosed and treated for one month with the antibiotic known generically internationally as Doxycycline, this was purchased as Vibramycin from Pfizer. Samples from synovial fluid were taken before and after treatment. We identified 30 patients that had clinical and radiological signs of Osteoarthritis. These patients were informed and signed a paper according to the instructions from the ethical committee (Northern Norway Health Region 5). During the first visit we took a sample from the synovial fluid. Standard technique, upper lateral portal, using a 10 ml. syringe. […] The samples were immediately put into an icebox and brought to the lab. All the patients were given Vibramycin 100 mg daily for 4 weeks. From the patients where we found the bacteria, we took new synovial-fluid samples using the same technique. Table 3 below show a summary of the response to antibiotic treatment with tetracycline for four weeks as determined by direct questions to the patients on how they felt.

[3] = tested on: collagenase; details: Yu et al. 1991; cited from earlier work
[4] = tested on: Pseudomonas; details: cited from earlier work
[5] = tested on: Pseudomonas; details: cited from earlier work; remark: listed apart in the source

Which “clinical scores for the patient (KOOS and Lysholm)” value [1] does the source give for `C[C@H]1c2cccc(O)c2C(O)=C2C(=O)[C@]3(O)C(O)=C(C(N)=O)C(=O)[C@@H](N(C)C)[C@@H]3[C@@H](O)[C@@H]21` [Vibramycin, Doxycycline] here?
Its value is “improved all the clinical scores”.

And the “symptoms in the majority of patients tested” value [2]?
The value was “improved symptoms”.

And the “the patient's collagenase activity” value [3]?
Its value is “inhibit the patient's collagenase activity”.

Which “effectiveness against Pseudomonas” value [4] does the source give for `CC(O)C(=O)O.O=C(O)c1cn(C2CC2)c2cc(N3CCNCC3)c(F)cc2c1=O` [ciprofloxacinlactate] here?
Its value is “effective against Pseudomonas”.

With `NC(N)=NCCS` [mercaptoethylguanidine] as the compound, how does the “inflammatory response of Pseudomonas infection due to nitric oxide” value [5] read?
The value was “inhibit the inflammatory response”.
